Experiments:
Assay in all cases: LANCE cAMP accumulation, transfected CHO-K1 cells
Type in all cases: cell-based
[1] = biological target: TSHR (full-length, 21-764) (Homo sapiens, UniProt P16473, I640A)
[2] = biological target: TSHR (full-length, 21-764) (Homo sapiens, UniProt P16473, M572A)
[3] = biological target: TSHR (full-length, 21-764) (Homo sapiens, UniProt P16473, V586A)
[4] = biological target: TSHR (full-length, 21-764) (Homo sapiens, UniProt P16473)
[5] = biological target: TSHR (full-length, 21-764) (Homo sapiens, UniProt P16473, A644F)
Sequence of TSHR (full-length, 21-764) (Homo sapiens, UniProt P16473, A644F) (P16473 21-764 A644F): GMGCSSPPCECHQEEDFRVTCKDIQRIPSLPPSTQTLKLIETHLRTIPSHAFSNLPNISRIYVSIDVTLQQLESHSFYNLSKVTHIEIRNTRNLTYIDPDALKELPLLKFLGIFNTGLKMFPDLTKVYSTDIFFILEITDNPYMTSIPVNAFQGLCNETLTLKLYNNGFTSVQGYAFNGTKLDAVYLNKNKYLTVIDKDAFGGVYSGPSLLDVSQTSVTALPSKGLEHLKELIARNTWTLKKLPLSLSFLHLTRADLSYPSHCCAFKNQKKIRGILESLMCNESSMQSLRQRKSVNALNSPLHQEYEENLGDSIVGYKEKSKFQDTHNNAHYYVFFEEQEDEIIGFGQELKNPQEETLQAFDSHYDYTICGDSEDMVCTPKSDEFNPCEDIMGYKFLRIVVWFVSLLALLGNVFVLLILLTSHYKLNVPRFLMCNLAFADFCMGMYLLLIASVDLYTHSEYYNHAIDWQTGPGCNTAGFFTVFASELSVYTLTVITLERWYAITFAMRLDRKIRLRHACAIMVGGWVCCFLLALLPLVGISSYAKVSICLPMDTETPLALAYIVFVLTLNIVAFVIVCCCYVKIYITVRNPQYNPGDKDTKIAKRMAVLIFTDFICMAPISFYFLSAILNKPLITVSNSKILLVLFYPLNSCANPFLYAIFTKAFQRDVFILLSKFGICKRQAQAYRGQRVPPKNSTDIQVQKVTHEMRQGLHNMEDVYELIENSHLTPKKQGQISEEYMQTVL

Sequence of TSHR (full-length, 21-764) (Homo sapiens, UniProt P16473, M572A) (P16473 21-764 M572A): as the sequence (P16473 21-764 A644F) above, with M552A, F624A counted along it
Sequence of TSHR (full-length, 21-764) (Homo sapiens, UniProt P16473, V586A) (P16473 21-764 V586A): as the sequence (P16473 21-764 A644F) above, with V566A, F624A counted along it
Sequence of TSHR (full-length, 21-764) (Homo sapiens, UniProt P16473) (P16473 21-764): as the sequence (P16473 21-764 A644F) above, with F624A counted along it
Sequence of TSHR (full-length, 21-764) (Homo sapiens, UniProt P16473, I640A) (P16473 21-764 I640A): as the sequence (P16473 21-764 A644F) above, with I620A, F624A counted along it

- EC50 [1]: 1150 nM
- EC50 [2]: 2400 nM
- EC50 [3]: 2040 nM
- EC50 [4]: 331 nM
- EC50 [5]: 1780 nM
SMILES: COc1ccc([C@H]2Nc3cccc(O)c3C(=O)N2Cc2ccccc2)cc1COc1ccc(NC(C)=O)cc1 [ML-109]
